# According to ChEMBL document CHEMBL1135781 (J Med Chem, 2002):
# Target: Melatonin receptor (Homo sapiens, UniProt P48039+P49286)
# Assay: Ability to inhibit 2-[125I]iodomelatonin specific binding to human melatonin receptor type 1A (MT1) expressed in CHO cells.
# Type: cell-based
row,SMILES,Ki
1,COc1ccc2c(c1)[C@H](CCNC(C)=O)CC2,0.0733 nM
2,COc1ccc2c(c1)C(CCNC(=O)C(F)(F)F)=C(c1ccccc1)C2,0.00602 nM
3,COc1ccc2c(c1)C(CCNC(C)=O)CC2 (stereo not drawn),0.131 nM
4,COc1ccc2c(c1)C(CCNC(=O)C(F)(F)F)C(c1ccccc1)C2 (stereo not drawn),1.6 nM
5,CCCC(=O)NCC[C@@H]1CCc2ccc(OC)cc21,0.0321 nM
6,COc1ccc2c(c1)[C@@H](CCNC(C)=O)CC2,10.6 nM
7,CCCC(=O)NCC[C@H]1CCc2ccc(OC)cc21,43.7 nM
8,CCCC(=O)NCCC1CCc2ccc(OC)cc21 (stereo not drawn),0.0553 nM
